Measurements: patent US20230357349A1, “GLUCAGON DELIVERY VIA ENZYMATIC ACTUATION” (University of Notre Dame du Lac, priority 2022, published 2023)
One block for each compound: values may come before it. Peptide text beside a SMILES is read from it. * marks the point of attachment. Palmitoyl = CCCCCCCCCCCCCCCC(=O)*; Decanoyl = CCCCCCCCCC(=O)*

Legend:
[1] = pH-dependent release of encapsulated 3 kDa FITC-dextran to screen PA sequences; assay type: physicochemical; conditions: 3 kDa FITC-dextran release; pH 7 minus pH 5 at 5 hr
Excerpt: GOx conversion of physiological levels of glucose to yield gluconic acid can lead to a microenvironmental pH in the range of ˜4-5.6. Accordingly, a molecular design was envisioned bearing the typical saturated alkyl chain and β-sheet-forming sequence coupled to glutamic acid as the hydrophilic domain; the pKa of its carboxylate R-group (˜4.5) can shift upward in the range of 4.5-6 due to aggregation effects from PA self-assembly. […] Different PA sequences were synthesized to vary the alkyl tail length (C10 and C16) and valine (V)-alanine (A) β-sheet sequence (V2A2, VA3, A2) with a conserved hydrophilic head group (E2). The intention of screening this small set of molecules was to probe pH-responsive release to determine the optimal balance of attractive and repulsive forces required for the envisioned application of assembly at normal glucose (i.e., low pH actuated by GOx) but disassembly and glucagon release in low glucose conditions (i.e., neutral-buffered physiological pH). […] The selected sequence has a shorter C10 alkyl segment than commonly used in most reported PA materials. The V2A2 sequence is thought to be effective for β-sheet hydrogen bonding, while still being shorter than most commonly explored sequences. […] Thus, a reduction in cohesive forces from a shorter alkyl segment and a 4-residue β-sheet forming segment was thought to enable more rapid responsiveness dependent on the charge state of the glutamic acid residues.
Hydrogels were prepared in all cases in a pH 5 buffer at 1% w/v to ensure initial gelation. […] It is noted that catalase was added to these formulations in order to catalyze the conversion of the toxic GOx byproduct, H2O2, into H2O and O2 in advance of in vivo application, as is commonly done to reduce toxicity for other GOx-based glucose-responsive materials.

[2] = Oscillatory rheology of 1% w/v PA samples in buffers of various pH; assay type: physicochemical; conditions: for storage modulus G′: 1% w/v, 1% strain, 10 rad/s
Protocol: The C10-V2A2E2 peptide (SEQ ID NO: 4) amphiphile was first dissolved in DI water at a concentration of 2% (w/v). The solution was adjusted to pH 7.4 using 0.1 M HCl, and then mixed with an equal volume of citrate-phosphate buffer (150 mM buffer+150 mM NaCl) at different pH (4, 5, 6, 7, 8) to form a gel at a concentration of 1% (w/v) in a final buffer concentration of 150 mM.
(§1) Dynamic oscillatory rheology was performed on a TA Instruments Discovery HR-2 rheometer fitted with a Peltier stage using a parallel plate geometry with diameter of 25 mm to test the mechanical properties of all peptide hydrogels. Samples were prepared at a concentration of 1% (w/v) in buffers of different pH or glucose concentration, as described above, and measured 24 h after gel preparation. An amplitude sweep was first performed to determine the linear viscoelastic range for each hydrogel condition, and then a frequency sweep was performed at constant strain. Subsequently, a time-sweep (1% strain, 10 rad/s angular frequency) was performed for all hydrogels to measure and compare the storage modulus (G′).
Vial inversion affords a crude means to inspect bulk differences in apparent hydrogelation. By contrast, rheological testing enables quantitative insights into the mechanical and dynamic properties of these materials. Oscillatory rheology was thus performed to quantify the observed pH-dependent differences in hydrogelation. Samples were first assessed with a strain sweep to determine the linear viscoelastic range, and then gel-forming samples were subjected to a frequency sweep to verify the range of oscillatory frequency rates wherein the storage modulus (G′) exceeded the viscous/loss modulus (G″).
The G′ values for samples at each pH were compared at a constant strain of 1% and frequency of 10 rad/s. When comparing G′ values across the full range of pH explored (n=2 gels/sample), pH-dependent mechanical properties were clearly evident (FIG. 4E, FIG. 7). […] Samples prepared at pH 8 had G′ measurements at the lower limit of instrument sensitivity.

[3] = Oscillatory rheology of 1% w/v PA with GOx at various glucose concentrations; assay type: physicochemical; conditions: pH 7.4 start, 24 h
Protocol: The C10-V2A2E2 peptide amphiphile was first dissolved in DI water at a concentration of 2% (w/v). The solution was adjusted to pH 7.4 using 0.1 M HCl, and then mixed with an equal volume of 300 mM NaCl solution containing 440 U/mL GOx and different glucose concentration (0, 100, 200, 300, 400 mg/dL) to achieve final glucose concentrations of 0, 50, 100, 150, and 200 mg/dL and final peptide concentration of 1% (w/v).
as §1
After pH-dependent self-assembly and gelation was established, glucose-dependent gelation was explored through the inclusion of GOx to actuate glucose into a pH stimulus. One benefit of hydrogelation of this material at 1% w/v is the significant hydrated and interconnected porosity (FIG. 9A-D) to enable encapsulation of proteins like GOx to drive gelation in response to glucose. Samples of C10-V2A2E2 were prepared at 1% w/v in buffer at pH 7.4, with glucose added to achieve concentrations ranging from 0 to 200 mg/dL (0 to 11.1 mM). These ranges of glucose were selected to span typical physiological glucose levels in the healthy state and extend down to levels corresponding to hypoglycemia. Following equilibration for 24 h, samples were assessed grossly for gelation by vial inversion (FIG. 10A), as performed in pH-dependent gelation studies. […] The material prepared with 100 mg/dL glucose was very viscous but slowly flowed upon inversion, while those prepared at 0 mg/dL and 50 mg/dL were not self-supported on inversion.
Measurements were collected as before for gels prepared in each of the different glucose-containing buffers. The value of G′ increased with increasing levels of glucose, as follows: 10.2 Pa (0 mg/dL), 19.0 Pa (50 mg/dL), 29.5 Pa (100 mg/dL), 206.6 Pa (150 mg/dL), and 2.4 kPa (200 mg/dL). Given results of pH-dependent gelation for C10-V2A2E2 PA, it was expected that inclusion of GOx would actuate increased glucose level into a local reduction in pH driving hydrogelation. […] The fixed and finite glucose concentrations within these small volume hydrogels may somewhat limit direct comparisons with concentrations for their use in a physiological setting, as a replenishable glucose supply could further stiffen the materials through enhanced pH reduction.

[4] = pH recorded by microelectrode submerged in PA/GOx hydrogel samples; assay type: physicochemical; conditions: 24 h, began at pH 7.4
[5] = system: Streptozotocin (STZ) diabetic mice; assay: Prophylactic hypoglycemia prevention after insulin overdose in diabetic mice
Protocol: To assess the ability of this technology to act in a preventative role to limit the onset and severity of hypoglycemia, a mouse model was established. Male C57BL6/J mice, aged 8 weeks, were induced to be diabetic by the destruction of pancreatic β-cells using a single intraperitoneal (i.p.) injection of streptozotocin (STZ, Cayman Chemical) at a dose of 150 mg/kg, according to published dosing protocols. […] Insulin-deficient diabetes was verified at 9-13 days following STZ treatment using handheld blood glucose meters (CVS brand) to ensure unfasted blood glucose (BG) levels of 600+ mg/dL. These glucometers measure blood glucose values in the range of 20-600 mg/dL. For convention in presenting data, values of “high” are plotted as 600 mg/dL, while values of “low” are plotted as 20 mg/dL.
Mice were fasted overnight for a period of 9 h, after which time BG was again measured. Mice having a fasted BG<450 mg/dL were triaged and removed from further study. Remaining mice were dosed with basal insulin detemir (Levemir®, Novo Nordisk) via subcutaneous (s.c.) injection at a dose of 0.5 IU/kg in a total injection volume of 100 μL. […] This material formulation was verified to be stable following extrusion through a syringe into a pH 7 buffer containing 100 mg/dL glucose. Blood glucose was monitored serially following treatment, which for purposes of data visualization was set as t=0 min. At 2 h following administration of treatments, hypoglycemia was induced by i.p. injection of AOF recombinant human insulin (Gibco) at a dose of ˜2.5 IU/kg in 100 μL of saline. BG levels were monitored for an additional 3 h after insulin overdose to monitor the onset of, and recovery from, hypoglycemia. […] In total n=9 mice per group were assessed by these methods, performing all treatments in two separate experiments on different mouse cohorts at different times and combining the data for analysis here. Mice were fasted for the duration of the study but had continuous access to water. […] Statistical testing between treatment and control groups was performed using one-way ANOVA with Tukey multiple comparison post-hoc testing (GraphPad Prism v9.0).
STZ mice were fasted to increase sensitivity to both insulin and glucagon and limit confounding data arising from variable eating patterns. After a 9 h fast, basal insulin detemir (Novo Nordisk, Levemir®) was administered to correct blood glucose to within the normoglycemic range for a healthy mouse (˜180-200 mg/dL) to simulate insulin-dependent blood glucose control in diabetes.

[6] = in vivo; cited from earlier work
[7] = humans; cited from earlier work

Δ Release % (pH 7-5 at 5 hr) [1]: 62.6% | critical strain ([2]; hydrogel in buffer at pH 5): ~55% | strain range of linear behavior with G′>G″ ([2]; hydrogel in buffer at pH 5): 0.1-5% | pKa ([2]; inferred from rheology, TEM, CD, FTIR, ThT, read-out: pKa of glutamic acid residues in the assembled structures): 5 to 6 | storage modulus G′ ([2]; pH 4): 6.2 kPa | storage modulus G′ ([2]; pH 5): 5.1 kPa | storage modulus G′ ([2]; pH 6): 53.7 Pa | storage modulus G′ ([2]; pH 7): 4.3 Pa | storage modulus G′ ([2]; pH 8): 1.2 Pa | storage modulus G′ ([3]; 0 mg/dL glucose): 10.2 Pa | storage modulus G′ ([3]; 50 mg/dL glucose): 19.0 Pa | storage modulus G′ ([3]; 100 mg/dL glucose): 29.5 Pa | storage modulus G′ ([3]; 150 mg/dL glucose): 206.6 Pa | storage modulus G′ ([3]; 200 mg/dL glucose): 2.4 kPa | pH within hydrogel sample ([4]; 0 mg/dL glucose): 7.3 | pH within hydrogel sample ([4]; 200 mg/dL glucose): 5.5
Compound: CCCCCCCCCC(=O)N[C@H](C(=O)N[C@H](C(=O)N[C@@H](C)C(=O)N[C@@H](C)C(=O)N[C@@H](CCC(=O)O)C(=O)N[C@@H](CCC(=O)O)C(N)=O)C(C)C)C(C)C [C10—V2A2E2] (Decanoyl-VVAAEE-NH2)

Δ Release % (pH 7-5 at 5 hr) [1]: 39.1%
Compound: CCCCCCCCCC(=O)N[C@H](C(=O)N[C@@H](C)C(=O)N[C@@H](C)C(=O)N[C@@H](C)C(=O)N[C@@H](CCC(=O)O)C(=O)N[C@@H](CCC(=O)O)C(N)=O)C(C)C [C10—VA3E2] (Decanoyl-VAAAEE-NH2)

Δ Release % (pH 7-5 at 5 hr) [1]: 38.9%
Compound: CCCCCCCCCCCCCCCC(=O)N[C@@H](C)C(=O)N[C@@H](C)C(=O)N[C@H](C(=O)N[C@H](C(=O)N[C@@H](CCC(=O)O)C(=O)N[C@@H](CCC(=O)O)C(N)=O)C(C)C)C(C)C [C16—A2V2E2] (Palmitoyl-AAVVEE-NH2)

Δ Release % (pH 7-5 at 5 hr) [1]: 43.6%
Compound: CCCCCCCCCCCCCCCC(=O)N[C@H](C(=O)N[C@H](C(=O)N[C@@H](C)C(=O)N[C@@H](C)C(=O)N[C@@H](CCC(=O)O)C(=O)N[C@@H](CCC(=O)O)C(N)=O)C(C)C)C(C)C [C16—V2A2E2] (Palmitoyl-VVAAEE-NH2)

Δ Release % (pH 7-5 at 5 hr) [1]: 53.8%
Compound: CCCCCCCCCCCCCCCC(=O)N[C@H](C(=O)N[C@@H](C)C(=O)N[C@@H](C)C(=O)N[C@@H](C)C(=O)N[C@@H](CCC(=O)O)C(=O)N[C@@H](CCC(=O)O)C(N)=O)C(C)C [C16—VA3E2] (Palmitoyl-VAAAEE-NH2)

Compound: dasiglucagon
blood glucose relative to buffer control ([5]; 30 min after treatment, before insulin challenge): sharply increased | blood glucose at endpoint of study ([5]; 300 min, 3 h after insulin challenge, n=9): 65.6 ± 10.8 mg/dL | minimum (nadir) blood glucose ([5]; STZ mice, s.c. 0.01 mg dasiglucagon, insulin challenge at 2 h, n=9, SEM): 41.1 ± 5.0 mg/dL | observations of death ([5]; after insulin overdose): 1 of 9

Compound: glucagon
half-life in circulation [6]: approximately 5 min

Compound: insulin detemir
duration of action [7]: 18 to 20 h
